Measurements from patent publication US20190054035A1, “SELF-ASSEMBLED PEPTIDE NANOFIBERS AND USE THEREOF FOR TARGETED DRUG DELIVERY” (Yissum Research Development Company of the Hebrew …, priority 2017, published 2019).
“Also recorded” adds a separate entry of the source. Where a SMILES comes first, the peptide text is derived from it. The star is where a group is joined. Fmoc = O=C(OCC1c2ccccc2-c2ccccc21)*; Cbz = O=C(OCc1ccccc1)*

Assays:
cathepsin L = target: T1, cathepsin L (Homo sapiens, UniProt P07711); assay: Cleavage of substrate peptides by cathepsin L, fragment analysis by LC-MS; assay type: biochemical; details: 3 hours at 37° C., pH 5.5, LC-MS fragment analysis
T1 construct: made in house; host or cells: E. coli BL21(DE3)pLysS
T1 sequence (P07711 18-333 limits assumed): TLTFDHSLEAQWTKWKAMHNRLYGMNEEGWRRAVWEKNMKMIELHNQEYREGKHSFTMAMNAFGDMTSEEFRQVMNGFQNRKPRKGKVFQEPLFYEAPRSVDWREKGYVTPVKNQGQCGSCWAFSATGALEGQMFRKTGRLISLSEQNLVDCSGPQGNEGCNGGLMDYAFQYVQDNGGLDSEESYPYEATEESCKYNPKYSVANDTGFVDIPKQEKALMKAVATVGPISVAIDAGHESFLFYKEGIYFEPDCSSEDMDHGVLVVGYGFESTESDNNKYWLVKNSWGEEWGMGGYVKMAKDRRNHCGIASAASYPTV
Method: (§1) Each peptide (1 nmole) was treated with […] cathepsin B or cathepsin L (generated by transformation of E. coli BL21(DE3)pLysS strain with the pET3a/procathepsin B or procathepsin L vectors) or acetate buffer vehicle (50 mM acetate, 5 mM MgCl2, 2 mM DTT, adjusted to pH 5.5) for 3 hours at 37° C. Next, enzymes were precipitated by an hour incubation at −80° C. in 80% cold methanol followed by 10 minutes of 6000 g centrifugation at 4° C. Supernatant volume was reduced to about 15 μl under vacuum, adjusted to a final volume of 30 μl with methanol and analyzed by LCMS equipped with C18 reverse phase.

[1] = Self-assembly of TPSs into nanofibers, electron microscopy (TEM/SEM); assay type: physicochemical; details: for Diameter of TPS nanofibers / self-assembly into ordered nanofibers: TEM; for Diameter of TPS nanofibers: solvent switching DMSO to water; for self-assembly into ordered nanofibers: 5 mg/ml (1 mg/ml TPS8, TPS9)
Method: Lyophilized peptides were dissolved in DMSO to a concentration of 100 mg/ml and then diluted in DDW to the indicated final concentration.
Transmission electron microscopy (TEM) analysis was performed by applying 10 μl of samples to a 200 or 400-mesh copper grids covered by carbon-stabilized Formvar film (SPI, West Chester, Pa.). The samples were allowed to adsorb for 2 minutes before excess fluid was blotted off. Samples were negatively stained by depositing 10 μl of 2% uranyl acetate on the grid and allowing it to adsorb for 2 minutes before excess fluid was blotted off. Except the sample in FIG. 9E, all samples were negatively stained. TEM micrographs were recorded using a JEOL 1200EX or JEOL JEM-1400Plus electron microscope operating at different kV.
Scanning Electron Microscopy (SEM) samples were prepared as described above for TEM on a 400-mesh copper grids, without uranyl acetate staining, and viewed using FBI Magellan™ 400L system.

cathepsin B [2] = target: T2, cathepsin B (Homo sapiens, UniProt P07858); assay: Cleavage of substrate peptides by cathepsin B, fragment analysis by LC-MS; assay type: biochemical; details: 3 hours at 37° C., pH 5.5, LC-MS fragment analysis
T2 construct: made in house; host or cells: E. coli BL21(DE3)pLysS
Method: as §1

[3] = Kinetics of TPS4 self-assembly by turbidity; assay type: physicochemical; details: 0.5, 1 or 2 mg/ml, 37° C., first 5 hours
Method: Freshly prepared aliquots of 0.5, 1 or 2 mg/ml of TPS4 were placed in triplicates in a 96-well plate, 100 ul/well. Plate was placed at 37° C. in a Biotek Cytation 3 plate reader (Winooski, Vt., USA) and absorbance at 350 nm was measured every 2 minutes during 5 hours.

[4] = test system: lysates from mice muscles; assay: Nanofibers degradation by mice muscle lysates; assay type: biochemical; details: 0.5 mg/ml TPS4, mice muscle lysates, first ten hours
Method: (§2) Tissue lysates were prepared as previously described. Assembly of TPS4 in triplicates was performed for 4 hours in acetate buffer as described in FIG. 6B. Next, 100 μg of lysates from 4T1 tumor or muscles, or RIPA vehicle control (1% Tergitol-type NP-40 (nonyl phenoxypolyethoxylethanol), 0.1% SDS, 0.5% sodium deoxycholate) were added in acetate buffer. The absorbance was read at 350 nm after gentle shaking at 37° C. for indicated times using a BioTek plate reader.

4T1 tumor lysates = assay: Nanofibers degradation by 4T1 tumor lysates; assay type: biochemical, mice
Method: as §2

cathepsin B [5] = target: T2, cathepsin B; assay: Turbidity analysis of TPS4 nanofiber degradation by cathepsin B; assay type: biochemical; details: 0.5, 1 and 2 mg/ml TPS4, 37° C.
Method: Turbidity analysis for TPS4 solutions was conducted using triplicates of freshly prepared solutions as described above in a 96 well plate. Aliquots of 1, 2 or 4 mg/ml were allowed to assemble for 4-5 hours at room temperature. Next, 0.064, 0.128 or 0.255 μM of cathepsin B or acetate buffer vehicle were added, diluting the samples to 0.5, 1, and 2 mg/ml, respectively. The plate was placed at 37° C. in a Biotek Synergy HT plate reader (Winooski, Vt., USA) and absorbance was measured for 12 hours as described above. After 24 hours since enzyme addition, a color picture was taken and the turbidity was measured again.

MDA-MB 231 cells = assay: TPS4 nanofibers cytotoxicity, methylene blue assay; assay type: cell-based, human; details: 0.5 mg/ml nanofibers, 24 or 48 hours
Method: MDA-MB 231 human breast adenocarcinoma cells were cultured in Dulbecco's modified eagle's medium (DMEM) supplemented with 10% fetal bovine serum (FBS), 1% penicillin and 1% streptomycin in a humidified atmosphere of 5% CO2 at 37° C. One day prior to treatment MDA-MB 231 cells (7×10^3 cells/well) were cultured in a 96-well plate. The media of TPS4 that was assembled in DMEM was removed by centrifugation (14,000 rpm, 4° C.) and the nanofibers were resuspended in DMEM supplemented with 10% […], 1% penicillin and 1% streptomycin. Cells in triplicates were incubated with 0.5 mg/ml of TPS4 nanofibers (final concentration of 0.1% DMSO was kept constant) in growth medium at 37° C. After 24 or 48 hours of treatment, cell survival was determined by standard methylene blue assay.

Compound | Number of amino acids removed from each TPS after cathepsin treatment, Cat L (cathepsin L) | Diameter of TPS nanofibers [1] | Number of amino acids removed from each TPS after cathepsin treatment, Cat B (cathepsin B [2]) | further results
Fmoc-Phe-Lys-Phe-NH2 [TPS5] | 1 | 66 ± 13 nm | 1 | 
NH2-FFKF-amide [TPS6] | 2 |  | 1 | self-assembly into ordered nanofibers [1]: excluding
NCCCC[C@H](NC(=O)[C@H](Cc1ccccc1)NC(=O)[C@H](Cc1ccccc1)NC(=O)OCc1ccccc1)C(=O)N[C@@H](Cc1ccccc1)C(=O)O [TPS4, Cbz-FFKF-OH] (Cbz-FFKF-OH) | 2 | 24 ± 6 nm | 2 | increase in turbidity (absorbance at 350 nm) during self-assembly [3]: up to 2.8±0.6 folds; nanofiber degradation over time [4]: limited effect; time to form fibers upon assembly initiation ([1]; microscopic examination (data not shown)): instantly formed fibers; nanofiber degradation over time (4T1 tumor lysates; 0.5 mg/ml TPS4, 4T1 tumor lysates, turbidity at 350 nm): degraded the majority of TPS4 nanofibers within two hours; remaining nanofibers relative to vehicle (absorbance at 350 nm) (4T1 tumor lysates; overnight lysate treatment, all concentrations tested): less than 20%; nanofiber degradation at the lowest concentration (4T1 tumor lysates; overnight lysate treatment, lowest TPS4 concentration): full degradation; degradation of assembled nanofibers by cathepsin B (turbidity at 350 nm) (cathepsin B [5]): significant and robust degradation; cytotoxicity / growth inhibition (MDA-MB 231 cells): no growth inhibition; also recorded: no cytotoxicity
Ac-FFKF-amide [TPS7] | 2 |  | 1 | self-assembly into ordered nanofibers [1]: excluding
NH2-FFKF-OH (H-FFKF-OH) [TPS1] | 2 | 310 ± 80 nm | 1 | 
Fmoc-FFKF-OH (SMILES NCCCC[C@H](NC(=O)[C@H](Cc1ccccc1)NC(=O)[C@H](Cc1ccccc1)NC(=O)OCC1c2ccccc2-c2ccccc21)C(=O)N[C@@H](Cc1ccccc1)C(=O)O) [TPS3] | 2 | 14 ± 2 nm |  | 
Fmoc-FFKF-NH2 [TPS9] |  | 13 ± 4 nm |  | 
Ac-FFKF-OH [TPS2] | 2 | 12 ± 1 nm | 2 | 
Cbz-FFKF-NH2 [TPS8] | 2 | 30 ± 6 nm |  | 
